Values after ≈ are worked out from the molar mass of the structure shown. Records with an inconclusive call do not appear. Active and inactive are the calls of the source. No rule for the calls is given here.
What follows are compounds tested on M. tuberculosis H37Rv growth inhibition (assay: Mycobacterium tuberculosis H37Rv growth inhibition, cell based, confirmatory dose response (AID 1949);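 also: bacteria grown 7 days with compound before Alamar blue readout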).

| SMILES | IC50 |
| --- | --- |
| CCOC(=O)COc1ccc(S(=O)(=O)N2CCc3ccccc3C2)cc1 | 0.64 µg/mL (≈ 1.7 µM) |
| OC(COc1ccccc1Br)CN1CCN(C(c2ccccc2)c2ccccc2)CC1 (stereo not drawn) | 5.33 µg/mL (≈ 11.1 µM) |
| Cc1ccc(-n2c(=O)oc3ccc(Cl)cc3c2=O)cc1 | > 50 µg/mL (inactive) |
| O=C(Oc1ccccc1)c1ccc(COC(=O)c2ccco2)cc1 | 2.69 µg/mL (≈ 8.35 µM) |
| O=C(CC1(O)C(=O)N(CCc2ccccc2)c2ccc(Cl)cc21)c1ccc(Cl)s1 (stereo not drawn) | 5.18 µg/mL (≈ 11.6 µM) |
| O=C(c1ccc(NC(=O)C2(c3ccccc3)CCCC2)cc1)N1CCCCC1 | 1.24 µg/mL (≈ 3.29 µM) |
| COC(=O)c1ccc(CSc2nnc(-c3ccncc3)o2)o1 | > 50 µg/mL (inactive) |
| Cc1cc(NS(=O)(=O)c2ccc(NC(=O)c3ccc(C(C)(C)C)cc3)cc2)no1 | 1.76 µg/mL (≈ 4.26 µM) |
| C/C(=N/N=C1\NC(=O)C(Cc2cccc(C(F)(F)F)c2)S1)c1ccc(C)cc1 (stereo not drawn) | 4.95 µg/mL (≈ 12.2 µM) |
| Fc1ccc(C2=CC(c3ccc(Br)cc3)n3nnnc3N2)cc1 (stereo not drawn) | 22.6 µg/mL (≈ 60.7 µM) |
| CCCCn1c(=N)n(CC(O)COc2cccc(C)c2)c2ccccc21 (stereo not drawn) | 6.05 µg/mL (≈ 17.1 µM) |
| CCC(=O)NC(=S)Nc1ccc(C(C)C)cc1 | < 0.1 µg/mL |
| Cc1ccc2nc(-c3ccncc3)cc(C(=O)Nc3ccc(C(=O)N4CCCC4)cc3)c2c1 | 8.89 µg/mL (≈ 20.4 µM) |
| Cc1cccc(-n2c(N)cc(=O)nc2SCC(=O)Nc2nc(-c3ccccc3)cs2)c1 | 3.08 µg/mL (≈ 6.85 µM) |
| CC(C)(C)c1ccc(C(=O)NC(=S)Nc2ccc(F)cc2)cc1Br | 2.51 µg/mL (≈ 6.13 µM) |
| COC(=O)c1sc(NC(=O)c2c(F)c(F)c(F)c(F)c2F)c(C(N)=O)c1C | < 0.1 µg/mL |
| COc1cc(/C=C/[N+](=O)[O-])ccc1OC(=O)c1ccco1 | 22.6 µg/mL (≈ 78.1 µM) |
| COC(=O)COc1ccc(NC(=O)c2cccc(C)c2)cc1 | 0.58 µg/mL (≈ 1.94 µM) |
| CC(NC(=S)NC(=O)c1ccc(-c2ccccc2)cc1)c1ccccc1 (stereo not drawn) | 5.85 µg/mL (≈ 16.2 µM) |
| CCCCNCCCCOc1ccc2ccccc2c1Br | 1.63 µg/mL (≈ 4.65 µM) |

| SMILES | IC50 |
| --- | --- |
| O=C(Nc1nc2ccccc2[nH]1)c1ccc(Br)cc1 | 14.5 µg/mL (≈ 46 µM) |
| CC1CCN(c2ccc(N)cc2)CC1 | 5.71 µg/mL (≈ 30 µM) |
| CCCCCn1c(NCc2ccc(N(C)C)cc2)nc2ccccc21 | 2.9 µg/mL (≈ 8.62 µM) |
| O=C(Nc1cccc(Cl)c1)Nc1ccc(N2CCOCC2)c(C(F)(F)F)c1 | 3.59 µg/mL (≈ 8.98 µM) |
| COc1ccc(-c2nnc(SCC(=O)NCCc3ccccc3)o2)cc1 | < 0.1 µg/mL |
| Cc1ccc(-c2nn(-c3ccccc3)cc2CNCc2ccccc2)o1 | 9.25 µg/mL (≈ 26.9 µM) |
| c1ccc2cc(OCCCn3ccnc3)ccc2c1 | 10.3 µg/mL (≈ 40.9 µM) |
| COc1ccccc1C(=O)Nc1ccc2oc(-c3cccc(Cl)c3)nc2c1 | > 50 µg/mL (inactive) |
| O=C(COc1ccc(Cl)cc1)Nc1ccc(N2CCN(C(=O)c3ccco3)CC2)c(Cl)c1 | 1.67 µg/mL (≈ 3.52 µM) |
| CCc1nc2sc(C(=O)NCc3ccc(F)cc3)c(N)c2c(C(F)(F)F)c1C | 2.61 µg/mL (≈ 6.34 µM) |
| O=C(Nc1ccc2c(c1)OCCO2)NC12CC3CC(CC(C3)C1)C2 | 4.52 µg/mL (≈ 13.8 µM) |
| Clc1ccc(OCCCCCn2ccnc2)c(Cl)c1 | 3.48 µg/mL (≈ 11.6 µM) |
| OC(COc1ccc2ccccc2c1)CN1CCCN(CC(O)COc2ccc3ccccc3c2)CC1 (stereo not drawn) | 0.73 µg/mL (≈ 1.46 µM) |
| O=C(Nc1ccc(Cc2ccncc2)cc1)c1ccc(-c2cccc(C(F)(F)F)c2)o1 | 12 µg/mL (≈ 28.5 µM) |
| CCN(CC)c1ccc(NC(=O)C(C)Oc2cccc(Cl)c2)cc1 (stereo not drawn) | 6.4 µg/mL (≈ 18.5 µM) |
| COC(=O)COc1ccc(NC(=O)c2ccccc2C)cc1 | < 0.1 µg/mL |
| C=CCc1cc(C)ccc1OCCCCn1ccnc1 | 1.45 µg/mL (≈ 5.36 µM) |
| O=C(Nc1ccccc1-c1ccccc1)C(Cl)(Cl)Cl | 2.44 µg/mL (≈ 7.76 µM) |
| CC(C)OC(=O)C(C)n1cnc2scc(-c3ccc(Br)cc3)c2c1=O (stereo not drawn) | 8.3 µg/mL (≈ 19.7 µM) |
| C#CCOc1c(Cl)cc(/C=C/[N+](=O)[O-])cc1Cl | > 50 µg/mL (inactive) |

| SMILES | IC50 |
| --- | --- |
| Cc1cc(OCCCN2CCCC(C)C2)cc(C(C)C)c1 (stereo not drawn) | 5.85 µg/mL (≈ 20.2 µM) |
| COC(=O)COc1ccc(NC(=O)COc2ccc(C)c(C)c2)cc1 | 3.35 µg/mL (≈ 9.76 µM) |
| Cc1ccc(Oc2nc(-c3cccnc3)nc3ccccc23)cc1C | 15.8 µg/mL (≈ 48.4 µM) |
| COc1ccc(NC(=S)NC(=O)CCc2ccccc2)cc1 | 1.92 µg/mL (≈ 6.11 µM) |
| O=C(Nc1ccc(F)c(Cl)c1)c1ccc([N+](=O)[O-])o1 | < 0.1 µg/mL |
| N#C/C(=C/c1ccc([N+](=O)[O-])o1)c1ccc(C#N)cc1 | 2.96 µg/mL (≈ 11.2 µM) |
| Oc1ccc(Br)cc1C1=NNC(c2ccc(F)cc2)C1 (stereo not drawn) | 2.89 µg/mL (≈ 8.62 µM) |
| COc1ccc(C2CC(=O)C3=C(C2)NC(C)=C(C(=O)Nc2ccccc2C)C3c2coc3ccc(C)cc3c2=O)cc1OC (stereo not drawn) | 3.7 µg/mL (≈ 6.26 µM) |
| O=C(c1ccc2ccccc2c1)N(C1CCCCC1)C1CCCCC1 | 43 µg/mL (≈ 128 µM) |
| Cc1ccc(C(=O)N2CCN(c3ccc(NC(=O)COc4ccccc4Cl)cc3)CC2)cc1 | 6.08 µg/mL (≈ 13.1 µM) |
| COc1ccc(CNc2ccccc2O)cc1OC | 16.3 µg/mL (≈ 62.7 µM) |
| Cc1ccc(-c2nn(-c3cc(N4CCN(C)CC4)ccc3[N+](=O)[O-])c(=O)c3ccccc23)cc1 | 8.15 µg/mL (≈ 17.9 µM) |
| O=C(Oc1cccc2cccnc12)c1ccc(S(=O)(=O)N2CCCCC2)cc1 | 1.48 µg/mL (≈ 3.73 µM) |
| O=C1CC(c2ccc(Cl)cc2)CC2=C1C(c1ccc(C(F)(F)F)cc1)Nc1ccccc1N2 (stereo not drawn) | 2.14 µg/mL (≈ 4.56 µM) |
| CC(C)c1ccc(NC(=S)NC(=O)c2ccccc2F)cc1 | 2.56 µg/mL (≈ 8.09 µM) |
| CCOC(=O)c1ccc2nc(C)cc(Nc3ccc(N4CCCCC4)cc3)c2c1 | 2.41 µg/mL (≈ 6.19 µM) |
| COC(=O)C(C)Oc1ccc2c(=O)c(Oc3ccccc3Br)coc2c1 (stereo not drawn) | 2.96 µg/mL (≈ 7.06 µM) |
| COC(=O)COc1ccc2cc(-c3ccc(Cl)cc3)c(=O)oc2c1 | 18.8 µg/mL (≈ 54.6 µM) |

Reference: PubChem BioAssay AID1949 (Southern Research Institute, 2009)
